The values below come from PubChem BioAssay (NCI).

Among the test systems are SW-620 colon; OVCAR-4 ovarian; SNB-75 CNS; EKVX NSCLC; M14 melanoma; UACC-62 melanoma; IGROV1 ovarian; COLO 205 colon; SNB-19 CNS; K-562 leukemia.
Holding throughout (test): DTP human tumour cell line panel, 48 h

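Step 1: Grow cells in 96-well plates. Step 2: Expose to compound for 48 hours at 5 concentrations. Step 3: Interpolate endpoints linearly; if unreached, use highest concentration. GI50 is the concentration that inhibits growth by half. TGI is the concentration that stops growth completely.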 Where only a bound is given, the exact number is not on record here.

One may read the TGI as the concentration giving total growth inhibition. As for `c1ccc2c(NCCCCCCCCNc3c4ccccc4nc4ccccc34)c3ccccc3nc2c1`, the concentration for total growth inhibition (TGI) with SW-620 colon turned out to be 1.71 µM; in the assay with OVCAR-4 ovarian, 2.41 µM; in the assay on SNB-75 CNS it was 2.62 µM; in the assay on EKVX NSCLC, 2.8 µM; in the assay with M14 melanoma, 2.52 µM; in the assay on UACC-62 melanoma, 2.19 µM. The figures for the concentration for total growth inhibition (TGI) with IGROV1 ovarian, in the assay with COLO 205 colon and with SNB-19 CNS were 1.8 µM, 1.61 µM and 3.43 µM, respectively.

`CN(C)CN1C(=O)S/C(=C2\C(=O)N(CN(C)C)c3ccccc32)C1=O`: the TGI with SW-620 colon is 93.1 µM; in the assay on OVCAR-4 ovarian it was greater than 100 µM; with SNB-75 CNS, 74.5 µM; with EKVX NSCLC it was greater than 100 µM; in the assay on M14 melanoma, 68.3 µM; in the assay with UACC-62 melanoma, greater than 100 µM. The TGI in the assay on IGROV1 ovarian, in the assay on COLO 205 colon and with SNB-19 CNS was greater than 100 µM each time.

For the compound `c1cc2c(cnc3cscc32)s1`, the TGI in the assay on SW-620 colon, in the assay on OVCAR-4 ovarian, with K-562 leukemia, in the assay on SNB-75 CNS, in the assay on M14 melanoma and in the assay on SNB-19 CNS was greater than 100 µM each time.

`CN(C)CCNC(=O)c1cccc(CO)c1[N+](=O)[O-]`: the TGI with SW-620 colon, in the assay on K-562 leukemia, in the assay on SNB-75 CNS, in the assay on M14 melanoma, with UACC-62 melanoma and with IGROV1 ovarian was greater than 100 µM in each case. For the same compound, the TGI with COLO 205 colon and in the assay on SNB-19 CNS was greater than 100 µM each time.

`COC(=O)/C(=N/NC(C)(C)C)C(C(=O)C=C(C)C)C(=O)C(=O)Nc1ccc(Cl)cc1C` (stereo not drawn): the TGI in the assay with SW-620 colon, with OVCAR-4 ovarian, in the assay with K-562 leukemia, in the assay on EKVX NSCLC, with M14 melanoma and in the assay on UACC-62 melanoma was greater than 100 µM in each case. In addition, the TGI in the assay with IGROV1 ovarian, with COLO 205 colon and in the assay on SNB-19 CNS was greater than 100 µM throughout.

Consider `CCCCCCCCCCCC(=O)C1=C(O)C(O)CCC1=O` (stereo not drawn), for which the TGI was determined as 60 µM with SW-620 colon; 90.8 µM in the assay on OVCAR-4 ovarian; 43 µM with K-562 leukemia; 67.7 µM with SNB-75 CNS; 34.1 µM in the assay on EKVX NSCLC; 25.5 µM in the assay with UACC-62 melanoma. Besides, the TGI with IGROV1 ovarian was 82.6 µM; with COLO 205 colon it was 28.9 µM; in the assay on SNB-19 CNS, 49.4 µM.

`c1ccc(COc2ccc3[nH]c4c(ncc5[nH]c6ccccc6c54)c3c2)cc1`: the total growth inhibition concentration (TGI) in the assay on SW-620 colon turned out to be 32.3 µM; in the assay on K-562 leukemia, 6.11 µM; with SNB-75 CNS it was 25.5 µM; in the assay on EKVX NSCLC, 32.4 µM; in the assay with M14 melanoma it was 26.7 µM; in the assay on UACC-62 melanoma, 35.3 µM. The TGI in the assay on IGROV1 ovarian turned out to be 18.9 µM; with COLO 205 colon it was 47.1 µM; in the assay with SNB-19 CNS, 33.5 µM.

In general, GI50 refers to the concentration at which growth is held to half of that of the control. For `NC(N)=N/N=C/c1c(-c2cc(Cl)sc2Cl)nc2n1CCS2`, the GI50 in the assay on SW-620 colon was 10.5 µM; with K-562 leukemia, 16 µM; in the assay with EKVX NSCLC, 9.21 µM; in the assay on M14 melanoma it was 6.93 µM; in the assay with UACC-62 melanoma, 8.62 µM; with IGROV1 ovarian, 16.4 µM. Besides, the TGI in the assay on SW-620 colon was 20.5 µM; in the assay on K-562 leukemia it was 43.7 µM; with EKVX NSCLC it was 18.1 µM; in the assay with M14 melanoma it was 14.3 µM; with UACC-62 melanoma, 16 µM; with IGROV1 ovarian it was greater than 50 µM.

For `CC(C)(C)N=CN1CCC(C(c2ccccc2)c2ccccc2)CC1`, the TGI with SW-620 colon, with OVCAR-4 ovarian, in the assay with K-562 leukemia, with SNB-75 CNS, with EKVX NSCLC and in the assay on UACC-62 melanoma was greater than 100 µM in each case. Moreover, the concentration for total growth inhibition (TGI) was greater than 100 µM in the assay with IGROV1 ovarian, 34.2 µM in the assay on COLO 205 colon and greater than 100 µM in the assay on SNB-19 CNS.

For `Cn1nnnc1[N-]Cc1ccccc1.[Au+].c1ccc([PH+](c2ccccc2)c2ccccc2)cc1`, the GI50 in the assay on SW-620 colon was 2.19 µM; in the assay with OVCAR-4 ovarian it was 1.99 µM; in the assay on SNB-75 CNS it was 7.92 µM; with EKVX NSCLC, 4.08 µM; in the assay with M14 melanoma, 1.67 µM; with UACC-62 melanoma, 1.72 µM. Further, the values for the GI50 in the assay with IGROV1 ovarian, in the assay on COLO 205 colon and in the assay on SNB-19 CNS were 2.43 µM, 2.29 µM and 3.61 µM, respectively. Moreover, the TGI came to 4.92 µM in the assay with SW-620 colon; 5.42 µM with OVCAR-4 ovarian; 20.5 µM with SNB-75 CNS; 5.78 µM in the assay with EKVX NSCLC; 3.83 µM in the assay with M14 melanoma; 7.12 µM in the assay on UACC-62 melanoma. Further, the values for the total growth inhibition concentration (TGI) in the assay on IGROV1 ovarian, in the assay on COLO 205 colon and in the assay with SNB-19 CNS were 8.16 µM, 5.81 µM and 13.1 µM, respectively.

Consider `CC1(C)C2CCC1C(=O)C(C=O)C2` (stereo not drawn), for which the TGI in the assay on SW-620 colon, in the assay with K-562 leukemia, in the assay with SNB-75 CNS, with M14 melanoma, in the assay with UACC-62 melanoma and in the assay on IGROV1 ovarian was greater than 100 µM each time. The concentration for total growth inhibition (TGI) in the assay on COLO 205 colon and with SNB-19 CNS was greater than 100 µM each time.

For the compound `NC(=O)c1ccccc1NC(=O)C(=O)C(c1cnc2ccc([N+](=O)[O-])cc2n1)[N+](=O)[O-]` (stereo not drawn), the TGI with SW-620 colon, with OVCAR-4 ovarian, in the assay on K-562 leukemia, in the assay with SNB-75 CNS, with EKVX NSCLC and in the assay on M14 melanoma was greater than 100 µM in each case. Besides, the TGI in the assay with UACC-62 melanoma, with IGROV1 ovarian and in the assay on SNB-19 CNS was greater than 100 µM in each case.

Regarding `CCCCCCCCCCCCC(SCCNC(=O)CCNC(=O)C(O)C(C)(C)COP(=O)(O)OP(=O)(O)OCC1OC(n2cnc3c(N)ncnc32)C(O)C1OP(=O)(O)O)C(=O)NCC(N)=O` (stereo not drawn), the concentration for total growth inhibition (TGI) is greater than 100 µM in the assay on SW-620 colon; greater than 100 µM with OVCAR-4 ovarian; 9.04 µM with SNB-75 CNS; greater than 100 µM in the assay with EKVX NSCLC; greater than 100 µM with M14 melanoma; greater than 100 µM in the assay on UACC-62 melanoma. The concentration for total growth inhibition (TGI) in the assay on IGROV1 ovarian, in the assay on COLO 205 colon and in the assay with SNB-19 CNS was greater than 100 µM each time.

`COc1ccc(/C=[N+](\[O-])[C@H](COCc2ccccc2)c2ccccc2)cc1`: the TGI in the assay with SW-620 colon, in the assay with K-562 leukemia, in the assay on SNB-75 CNS, in the assay with EKVX NSCLC, in the assay on IGROV1 ovarian and in the assay on COLO 205 colon was greater than 100 µM in each case. This compound also yielded a TGI in the assay on SNB-19 CNS greater than 100 µM.

On to `c1cncc(C2c3[nH]c4ccccc4c3CCN2CCN2CCCCC2)c1` (stereo not drawn), for which the total growth inhibition concentration (TGI) in the assay on SW-620 colon is greater than 100 µM; in the assay with OVCAR-4 ovarian it was greater than 100 µM; with K-562 leukemia, greater than 100 µM; with SNB-75 CNS it was greater than 100 µM; in the assay on EKVX NSCLC, greater than 100 µM; with M14 melanoma it was 32.3 µM. The total growth inhibition concentration (TGI) with UACC-62 melanoma, in the assay on IGROV1 ovarian and in the assay with SNB-19 CNS was greater than 100 µM each time.

`COc1cccc2c(=O)c3c(sc12)c(NCCCN)nc1ccccc13`: the GI50 in the assay on SW-620 colon is 1.3 µM; in the assay on OVCAR-4 ovarian, 1.73 µM; in the assay on SNB-75 CNS, 1.64 µM; with EKVX NSCLC, 1.43 µM; in the assay with UACC-62 melanoma, 1.64 µM; in the assay on IGROV1 ovarian it was 0.858 µM. Besides, the GI50 with SNB-19 CNS is 1.61 µM. Also, the TGI with SW-620 colon is 2.81 µM; in the assay with OVCAR-4 ovarian, 3.64 µM; in the assay on SNB-75 CNS, 3.2 µM; with EKVX NSCLC it was 2.81 µM; with UACC-62 melanoma, 3.05 µM; with IGROV1 ovarian, 2.16 µM. In the assay on SNB-19 CNS, this compound gave a TGI of 3.04 µM.

As to `CCOC(=O)C(=O)Nc1c(C)cccc1CC`, the total growth inhibition concentration (TGI) with SW-620 colon, with OVCAR-4 ovarian, in the assay with K-562 leukemia, in the assay on EKVX NSCLC, in the assay with M14 melanoma and in the assay on UACC-62 melanoma was greater than 100 µM each time. In addition, the TGI in the assay with IGROV1 ovarian and with SNB-19 CNS was greater than 100 µM in each case.

Take `CCN(CC)C(=S)SSC1CCCCC1`: the GI50 was 11.7 µM in the assay with SW-620 colon; 15 µM with OVCAR-4 ovarian; 11.3 µM in the assay with K-562 leukemia; 17.5 µM with SNB-75 CNS; 30.5 µM with EKVX NSCLC; 14.4 µM with M14 melanoma. Further, the GI50 with UACC-62 melanoma is 18 µM; with IGROV1 ovarian it was 17.2 µM; in the assay with SNB-19 CNS, 32.6 µM. Also, the TGI with SW-620 colon was 26.2 µM; in the assay on OVCAR-4 ovarian, 28.4 µM; with K-562 leukemia it was 38.8 µM; with SNB-75 CNS it was 48 µM; with EKVX NSCLC it was 91.2 µM; in the assay with M14 melanoma it was 30.9 µM. The values for the TGI in the assay with UACC-62 melanoma, in the assay on IGROV1 ovarian and in the assay with SNB-19 CNS were 42.8 µM, 38.4 µM and greater than 100 µM, respectively.

For `C=C1C(=O)O[C@H]2[C@H]1CC/C(COC(=O)c1ccc(C(=O)O)s1)=C\CC[C@@]1(C)O[C@@H]21`, the GI50 with SW-620 colon is 1.61 µM; in the assay on OVCAR-4 ovarian, 3.18 µM; with K-562 leukemia, 1.47 µM; in the assay on EKVX NSCLC, 2.21 µM; in the assay on M14 melanoma, 1.52 µM; in the assay on UACC-62 melanoma it was 1.65 µM. The GI50 in the assay on IGROV1 ovarian is 2.16 µM; with COLO 205 colon it was 2.01 µM; with SNB-19 CNS it was 3.17 µM. The TGI is 3.79 µM with SW-620 colon; 10.5 µM in the assay with OVCAR-4 ovarian; greater than 100 µM in the assay with K-562 leukemia; 5.68 µM with EKVX NSCLC; 3.43 µM with M14 melanoma; 3.23 µM in the assay on UACC-62 melanoma. Also, the total growth inhibition concentration (TGI) in the assay with IGROV1 ovarian was found to be 5.82 µM; with COLO 205 colon, 3.92 µM; in the assay with SNB-19 CNS, 11.6 µM.
